As usually defined, the melting point is the temperature of the solid-liquid transition.

`Cc1cc(CN(Cc2ccsc2)c2sc(-c3ccc(C(F)(F)F)cc3)nc2C)cc(C)c1OC(C)(C)C(=O)O` [Example 2, 2-[2,6-Dimethyl-4-({[4-methyl-2-(4-trifluoromethyl-phenyl)-thiazol-5-yl]-thiophen-3-ylmethyl-amino}-methyl)-phenoxy]-2-methyl-propionic acid] registered a melting point of 90 to 100 °C.
Turning to `Cc1cc(CN(C)c2cc(-c3ccc(Cl)cc3)nn2C)cc(C)c1OC(C)(C)C(=O)O` [Example 6, 2-[4-({[5-(4-Chloro-phenyl)-2-methyl-2H-pyrazol-3-yl]-methyl-amino}-methyl)-2,6-dimethyl-phenoxy]-2-methyl-propionic acid], the melting point amounted to 158 °C.
`Cc1cc(CN(Cc2ccc(F)cc2)c2cc(-c3ccc(C(F)(F)F)cc3)nn2C)cc(C)c1OC(C)(C)C(=O)O` [Example 14, 2-[4-({(4-Fluoro-benzyl)-[2-methyl-5-(4-trifluoromethyl-phenyl)-2H-pyrazol-3-yl]-amino}-methyl)-2,6-dimethyl-phenoxy]-2-methyl-propionic acid] gave a melting point of over 90 °C.
On to `Cc1cc(CN(Cc2cccs2)c2sc(-c3ccc(C(F)(F)F)cc3)nc2C)ccc1OC(C)(C)C(=O)O` [Example 91, 2-Methyl-2-(2-methyl-4-{([4-methyl-2-(4-trifluoromethylphenyl)thiazol-5-yl-]thiophen-2-ylmethylamino)methyl}phenoxy)propionic acid], for which the melting point was 100 °C.
`Cc1cc(CN(Cc2ccco2)c2sc(-c3ccc(C(F)(F)F)cc3)nc2C)ccc1OC(C)(C)C(=O)O` [Example 93, 2-Methyl-2-(2-methyl-4-{([4-methyl-2-(4-trifluoromethylphenyl)thiazol-5-yl]furan-2-ylmethylamino)methyl}phenoxy)propionic acid] showed a melting point of 80 °C.

These data come from patent US7241793B2, “Phenyloxyalkanonic acid derivatives as hPPAR activators” (SmithKline Beecham Corporation, priority 2002, dated 2007).
